The values below come from patent publication US5399729A, “Esterified alkoxylated polyol fat substitutes having high primary ester content” (Arco Chemical Technology, L.P., priority 1993, dated 1995).

The series deals with porcine pancreatic lipase. Nature of the series: Porcine pancreatic lipase-catalyzed hydrolysis (lipase titrimetric assay, automatic pH stat method). As to conditions: pH 8.5. In kind it is in vitro ADME. As for the experimental part: To measure the relative rate of enzyme-catalyzed hydrolysis for the esterified propoxylated glycerin, the composition was challenged by porcine pancreatic lipase. Test emulsions were prepared using the composition according to the procedures described by Naher, "Lipase Titrimetric Assay", in Methods in Enzymatic Analysis, Vol. 2, 2nd Eng. ed., p. 814 (1974), except that the composition was not neutralized prior to generation of the emulsion. A 20 mL sample of the composition was utilized. The emulsions were generated in a Waring blender equipped with a stainless steel jacketed container (300 mL capacity). The jacketed blender container was filled with an ice-in-water suspension to cool the emulsion during preparation. Hydrolysis of the composition at pH 8.50 and two enzyme levels (200 and 4000 units/assay) was monitored via the automatic pH stat method described by Naber using a Radiometic Copenhagen RTS822 recording titration system (equipped with a PHM84 pH meter and a REA 270 derivatization unit) and a 0.1N sodium hydroxide solution. The enzymatic reaction was maintained at 37° C. under a nitrogen atmosphere.
The results obtained for the esterified alkoxylated polyol obtained as described hereinabove and for olive oil and soybean oil controls are shown in Table I. The table also provides comparative data for a conventional esterified alkoxylated polyol made by reacting 8 equivalents of propylene oxide with one equivalent of glycerin under basic conditions and esterifying with soybean fatty acids; this conventional fat substitute has a low (<5%) proportion of primary ester linkages. […] This finding was surprising in view of U.S. Pat. Nos. 5,059,443 and 5,077,073, which indicate that the rate of lipase-catalyzed hydrolysis is substantially independent of the structure of the ester linkages in an esterified alkoxylated polyol fat substitute.

As for Soybean Oil, the “Hydrolysis Rate (#μeq/min for an equivalent amount of enzyme)” value is reported as 3.62 μeq/min; the “Hydrolyzability (relative to olive oil)” value amounted to 0.738; the “Normalized Hydrolyzability (hydrolyzability compared on an equal molar basis, taking into account the concentration of ester linkages)” value is listed as 0.723.
